Assays:
Format in all cases: in vivo
[1] = system: lambsquarters (Chenopodium album, CHEAL); test: Post-emerge test, greenhouse herbicide activity screening; settings: post-emerge, 14 days after application, rating scale 0-100
How it was run: (§1)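 Plants grown in 10 cm pots of sandy loam mix received acetone-dissolved compounds through a moving flat-fan nozzle. Doses ranged from 15 to 1000 g ai/ha. Pre-emerge pots were seeded one day earlier, post-emerge pots 8–21 days earlier. Fourteen days on, each pot was graded 0–100 for damage.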

[2] = system: sicklepod (Cassia obtusifolia, CASOB); test: as above; settings: post-emerge, 14 days after application, rating scale 0-100
How it was run: as §1

[3] = system: ivyleaf morningglory (Ipomoea hederacea, IPOHE); test: as above; settings: post-emerge, 14 days after application, rating scale 0-100
How it was run: as §1

[4] = system: johnsongrass (Sorghum halepense, SORHA); test: as above; settings: post-emerge, 14 days after application, rating scale 0-100
How it was run: as §1

[5] = system: redroot pigweed (Amaranthus retroflexus, AMARE); test: as above; settings: post-emerge, 14 days after application
How it was run: as §1

[6] = system: barnyardgrass (Echinochloa crus-galli, ECHCG); test: as above; settings: post-emerge, 14 days after application, rating scale 0-100
How it was run: as §1

[7] = system: velvetleaf (Abutilon theophrasti, ABUTH); test: as above; settings: post-emerge, 14 days after application, rating scale 0-100
How it was run: as §1

[8] = system: large crabgrass (Digitaria sanguinalis, DIGSA); test: as above; settings: post-emerge, 14 days after application, rating scale 0-100
How it was run: as §1

[9] = system: green foxtail (Setaria viridis, SETVI); test: as above; settings: post-emerge, 14 days after application, rating scale 0-100
How it was run: as §1

[10] = system: redroot pigweed (Amaranthus retroflexus, AMARE); test: Pre-emerge test, greenhouse herbicide activity screening; settings: pre-emerge, 14 days after application, rating scale 0-100
How it was run: (§2)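 Rating: 0–100 visual injury, 14 DAA. Application: acetone, 187 l/ha, 15–1000 g ai/ha, flat-fan track sprayer with nozzle 40–45 cm above soil or canopy. Post-emerge runs used 0.25% v/v surfactant on 2–3 leaf plants.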

[11] = system: upland rice (Oryza sp., var. Tebonnet, RICE); test: Post-emerge test, crop safety; settings: post-emerge, 14 days after application, rating scale 0-100
How it was run: (§3)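 Visual ratings on a 0-100 scale (0 no damage, 100 all plants dead) were taken at 14 days after treatment. Rates of 15-1000 g ai/ha in acetone, 187 l/ha, were sprayed onto soil one day after planting (pre-emerge) or onto 2-3 leaf plants with 0.25% v/v surfactant (post-emerge).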

[12] = system: field corn (Zea mays L., var. Dekalb 535, CORN); test: Post-emerge test, crop safety; settings: post-emerge, 14 days after application, rating scale 0-100
How it was run: as §3

[13] = system: upland rice (Oryza sp., var. Tebonnet, RICE); test: Pre-emerge test, crop safety; settings: pre-emerge, 14 days after application, rating scale 0-100
How it was run: as §2

[14] = system: field corn (Zea mays L., var. Dekalb 535, CORN); test: Pre-emerge test, crop safety; settings: pre-emerge, 14 days after application, rating scale 0-100
How it was run: as §2

[15] = system: lambsquarters (Chenopodium album, CHEAL); test: Pre-emerge test, greenhouse herbicide activity screening; settings: pre-emerge, 14 days after application, rating scale 0-100
How it was run: as §3

[16] = system: sicklepod (Cassia obtusifolia, CASOB); test: as above; settings: pre-emerge, 14 days after application, rating scale 0-100
How it was run: as §3

[17] = system: ivyleaf morningglory (Ipomoea hederacea, IPOHE); test: as above; settings: pre-emerge, 14 days after application, rating scale 0-100
How it was run: as §3

[18] = system: johnsongrass (Sorghum halepense, SORHA); test: as above; settings: pre-emerge, 14 days after application, rating scale 0-100
How it was run: as §3

[19] = system: barnyardgrass (Echinochloa crus-galli, ECHCG); test: as above; settings: pre-emerge, 14 days after application, rating scale 0-100
How it was run: as §3

[20] = system: velvetleaf (Abutilon theophrasti, ABUTH); test: as above; settings: pre-emerge, 14 days after application, rating scale 0-100
How it was run: as §3

[21] = system: large crabgrass (Digitaria sanguinalis, DIGSA); test: as above; settings: pre-emerge, 14 days after application, rating scale 0-100
How it was run: as §3

[22] = system: green foxtail (Setaria viridis, SETVI); test: as above; settings: pre-emerge, 14 days after application, rating scale 0-100
How it was run: as §3

COc1c(Cl)cc(F)c(-n2c(=O)cc(C(F)(F)F)n(C)c2=O)c1NN=C(C)C [15-12]
99: Post-emerge Herbicidal Activity SORHA (phytotoxicity rating) ([4]; 250 g ai/ha) | Post-emerge Herbicidal Activity RICE (crop damage rating) ([11]; 250 g ai/ha) | phytotoxicity rating RICE ([13]; 63 g ai/ha)
70: Post-emerge Herbicidal Activity ECHCG (phytotoxicity rating) ([6]; 63 g ai/ha) | Post-emerge Herbicidal Activity SETVI (phytotoxicity rating) ([9]; 63 g ai/ha)
95: Post-emerge Herbicidal Activity AMARE (phytotoxicity rating) ([5]; 63 g ai/ha, rating scale 0-100 (0 no damage, 100 complete death)) | Post-emerge Herbicidal Activity DIGSA (phytotoxicity rating) ([8]; 63 g ai/ha) | Post-emerge Herbicidal Activity CORN (crop damage rating) ([12]; 250 g ai/ha)
100: Post-emerge Herbicidal Activity CHEAL (phytotoxicity rating) ([1]; 63 g ai/ha) | Post-emerge Herbicidal Activity CHEAL (phytotoxicity rating) ([1]; 250 g ai/ha) | Post-emerge Herbicidal Activity CASOB (phytotoxicity rating) ([2]; 250 g ai/ha) | Post-emerge Herbicidal Activity IPOHE (phytotoxicity rating) ([3]; 63 g ai/ha) | Post-emerge Herbicidal Activity IPOHE (phytotoxicity rating) ([3]; 250 g ai/ha) | Post-emerge Herbicidal Activity AMARE (phytotoxicity rating) ([5]; 250 g ai/ha, rating scale 0-100) | Post-emerge Herbicidal Activity ECHCG (phytotoxicity rating) ([6]; 250 g ai/ha) | Post-emerge Herbicidal Activity ABUTH (phytotoxicity rating) ([7]; 63 g ai/ha) | Post-emerge Herbicidal Activity ABUTH (phytotoxicity rating) ([7]; 250 g ai/ha) | Post-emerge Herbicidal Activity DIGSA (phytotoxicity rating) ([8]; 250 g ai/ha) | Post-emerge Herbicidal Activity SETVI (phytotoxicity rating) ([9]; 250 g ai/ha) | phytotoxicity rating AMARE ([10]; 63 g ai/ha) | phytotoxicity rating AMARE ([10]; 250 g ai/ha) | phytotoxicity rating RICE ([13]; 250 g ai/ha) | phytotoxicity rating CORN ([14]; 63 g ai/ha) | phytotoxicity rating CORN ([14]; 250 g ai/ha) | phytotoxicity rating CHEAL ([15]; 63 g ai/ha) | phytotoxicity rating CHEAL ([15]; 250 g ai/ha) | phytotoxicity rating CASOB ([16]; 63 g ai/ha) | phytotoxicity rating CASOB ([16]; 250 g ai/ha) | phytotoxicity rating IPOHE ([17]; 63 g ai/ha) | phytotoxicity rating IPOHE ([17]; 250 g ai/ha) | phytotoxicity rating SORHA ([18]; 63 g ai/ha) | phytotoxicity rating SORHA ([18]; 250 g ai/ha) | phytotoxicity rating ECHCG ([19]; 63 g ai/ha) | phytotoxicity rating ECHCG ([19]; 250 g ai/ha) | phytotoxicity rating ABUTH ([20]; 63 g ai/ha) | phytotoxicity rating ABUTH ([20]; 250 g ai/ha) | phytotoxicity rating DIGSA ([21]; 63 g ai/ha) | phytotoxicity rating DIGSA ([21]; 250 g ai/ha) | phytotoxicity rating SETVI ([22]; 63 g ai/ha) | phytotoxicity rating SETVI ([22]; 250 g ai/ha)
90: Post-emerge Herbicidal Activity CASOB (phytotoxicity rating) ([2]; 63 g ai/ha)
80: Post-emerge Herbicidal Activity SORHA (phytotoxicity rating) ([4]; 63 g ai/ha) | Post-emerge Herbicidal Activity RICE (crop damage rating) ([11]; 63 g ai/ha) | Post-emerge Herbicidal Activity CORN (crop damage rating) ([12]; 63 g ai/ha)
